# Test results: US20240294881A1, “CELL CULTURE SUPPLEMENT FOR PRODUCING STEM CELLS, AND METHOD FOR PRODUCING STEM CELLS” (OPTICELL, INC, priority 2021, published 2024)
# Key:
# Type in all cases: cell-based
# [1] = tested on: healthy human neonatal fibroblasts; experiment: Immunostaining of stem cell marker proteins in neonatal fibroblast spheroids
# Protocol: To confirm whether stem cells were induced in fibroblast spheroids, the expression of stem cell marker proteins was examined by immunostaining with fluorescent dye-labeled antibodies. An aqueous solution of the polypeptide represented by formula (1) (0.125%) (cell culture supplement) was added to a commercial polystyrene-made 96-well round-bottom culture vessel (Nunclon Delta 96U Bottom, Thermo Fisher Scientific) at 100 μL/well, and the coating treatment with the cell culture supplement was completed in the same manner as in Example 2. Fibroblasts were maintained and cultured in a serum-free medium (Fujifilm Wako Pure Chemical Corporation; DMEM/F12 medium, human serum albumin recombinant 0.5 mg/ml, human transferrin recombinant 10 μg/mL, basic-FGF 5 ng/ml, and insulin 2.5 μg/mL). Fibroblasts floating in the medium were seeded in the culture vessel coated with the cell culture supplement at 4×10^4 cells/well/100 μL and cultured at 37° C. under 5% CO2 conditions. Spheroids were collected from the 96-well round-bottom culture vessel on day 20 from the start of culture, and cell fixation was performed with a 4% paraformaldehyde solution, followed by immunostaining. For fluorescence-labeled antibodies, three antibodies for detection of human stem cell marker proteins (NL557 fluorescent dye-labeled anti-SOX2 antibody (fluorescent orange), NL493 fluorescent dye-labeled anti-NANOG antibody (fluorescent green), and NL637-labeled anti-OCT4 antibody (fluorescent red), R&D Systems)) were used and reacted simultaneously to perform observation with a fluorescence microscope.
# [2] = tested on: HOS-143B (human osteosarcoma); experiment: Study on plate shape: spheroid formation; details: 96-well plate coated with 0.125% solution, 2 days of culture
# Protocol: (§1) 200 μl of an aqueous solution of the polypeptide represented by formula (1) (0.125%) (cell culture supplement) was added to each well of a commercial 96-well flat-bottom plate (Thermo Fisher Scientific), a V-bottom plate (Thermo Fisher Scientific), and a U-bottom plate (Thermo Fisher Scientific) and allowed to stand at 4° C. for 16 hours.
# (§2) Thereafter, the excess cell culture supplement was removed, and the remaining solution was dried under reduced pressure at room temperature for 24 hours.
# (§3) Hela cells (human cervical epithelial cancer, JCRB9004, National Institutes of Biomedical Innovation, Health and Nutrition) and HOS-143B (human osteosarcoma) were seeded at 2,000 cells/well in a culture plate coated with the cell culture supplement and cultured at 37° C. under 5% CO2 conditions. The medium used was DMEM+10% FBS.
# [3] = tested on: Hela cells (human cervical epithelial cancer); experiment: Study on plate shape: spheroid formation; details: 96-well plate coated with 0.125% solution, 2 days of culture
# Protocol: as §1, §2, §3
substance,measurement,setting,value
(Pro-Hyp-Gly)n [cell culture supplement],"NANOG stem cell marker protein, fluorescence (green)","[1]; spheroids day 20, NL493-labeled anti-NANOG antibody",detected
same,"SOX2 stem cell marker protein, fluorescence (orange)","[1]; spheroids day 20, NL557-labeled anti-SOX2 antibody",detected
same,"OCT4 stem cell marker protein, fluorescence (red)","[1]; spheroids day 20, NL637-labeled anti-OCT4 antibody",detected
same,"spheroid formation, U-bottom plate",[2],several spheroids
same,"spheroid formation, V-bottom plate",[2],a single spheroid
same,"spheroid formation, flat-bottom plate",[2],Numerous small spheroids
same,"spheroid formation, U-bottom plate",[3],several spheroids
same,"spheroid formation, V-bottom plate",[3],a single spheroid
same,"spheroid formation, flat-bottom plate",[3],Numerous small spheroids
